{
  "source": "patent US6548450B1",
  "about": "“Tetrazolinone derivatives” (Nihon Bayer Agrochem, K.K., priority 1999, dated 2003)",
  "test_system": "paddy field weeds",
  "assay": "Test for herbicidal effect against paddy field weeds",
  "type": "in vivo",
  "conditions": "application rate of 0.5 kg/ha, applied to the surface of the water 5 days after rice transplantation, examined after 3 weeks, greenhouse pot",
  "description": "Test for Herbicidal Effect Against Paddy Field Weeds\nPreparation of formulation of the active compound\nCarrier: Acetone 5 parts by weight\nEmulsifier: Benzyloxypolyglycolether 1 part by weight\nA formulation of the active compound is obtained as an emulsion by mixing 1 part by weight of the active compound with the above-mentioned amount of carrier and emulsifier. A prescribed amount of said formulation is diluted with water to prepare a formulation for testing.\nIn a greenhouse 3 seedlings of paddy rice (cultivar: Nipponbare) of 2.5 leafstage (15 cm tall) were transplanted in a 500 cm^2 pot filled with paddy field soil. Then seeds of barnyard grass, smallflower, bulrush, monochoria and broad-leaved weeds (common false pimpernel, Indian toothcup, long stemmed water wort, Ammannia multiflora Roxb., Dopatrium junceum Hammilt etc.) were sown and water was poured on the soil to a depth of about 2-3 cm.\n5 days after the rice transplantation a formulation of each active compound prepared according to the aforementioned preparation method was applied to the surface of the water. A water depth of 3 cm was maintained. The herbicidal effect was examined after 3 weeks from the treatment. The herbicidal effect was rated as 100% in the case of complete death and as 0% in the case of no herbicidal effect.",
  "data": [
    {"smiles": "CC(C)N(C(=O)n1nnn([C@@H](C)c2ccccc2)c1=O)c1ccccc1", "note": "[compound 3, 1-((S)-α-methylbenzyl)-4-(N-isopropyl-N-phenylcarbamoyl)-5(4H)-tetrazolinone]", "values": [
      {"measurement": "herbicidal effect against paddy field weeds", "value": "sufficient herbicidal effect"}
    ]}
  ]
}
